Experimental data published in patent US4962109A, “Insecticidally and acaricidally active pyrimidine esters and intermediates therefor” (Imperial Chemical Industries PLC, priority 1985, dated 1990).

Legend:
Format in all cases: in vivo
[1] = test system: Blattella germanica (cockroach nymphs); test: Residual test on cockroach nymphs (BG/R), Plastic pot, mortality; conditions: 72 h, 3 days, read-out: BG/R grading of mortality
Experimental: (§1) The activity of the Product was determined using a variety of insect pests. The Product was used in the form of liquid preparations containing 500, 250 or 100 parts per million (ppm) by weight of the Product. The preparations were made by dissolving the Product in acetone and diluting the solutions with water containing 0.01% by weight of a wetting agent sold under the trade name "LISSAPOL" NX until the liquid preparations contained the required concentration of the Product. "Lissapol" is a Registered Trade Mark.
(§2) The test procedure adopted with regard to each pest was basically the same and comprised supporting a number of the pests on a medium which was usually a host plant or a foodstuff on which the pests feed, and treating either or both the pests and the medium with the preparations. The mortality of the pests was then assessed at periods usually varying from one to three days after the treatment.
(§3) The results of the tests are given in Table III for each of the Products, at the rate in parts per million given in the second column as a grading of mortality designated as A, B or C wherein A indicates 80-100% mortality or knockdown, B indicates 50-79% mortality or knockdown and C indicates less than 50% mortality or knockdown.
BG/R Blattella germanica

[2] = test system: Nilaparvata lugens (brown plant hopper); test: Contact test on brown plant hopper (NL), Rice plant, mortality; conditions: 72 h, 3 days, read-out: NL grading of mortality
Experimental: as §1, §2, §3

[3] = test system: Tetranychus urticae (spider mites - adult); test: Contact test on spider mites - adult (TUa), French bean leaf, mortality; conditions: 72 h, 500 ppm, contact, 3 days, read-out: TUa grading of mortality
In short: (§4)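 Pests were supported on a host plant or food medium, and either or both were treated with preparations at 500, 250 or 100 ppm by weight. Mortality was assessed one to three days afterwards and banded into three grades, from A (80-100%) down to C (under 50%).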

Myzus persicae (aphids) = test: Contact test on aphids (MP), Chinese Cabbage leaf, mortality; conditions: 72 h, 500 ppm, contact, 3 days, read-out: MP grading of mortality
In short: as §4

[4] = test system: Heliothis virescens (tobacco budworm - larvae); test: Residual test on tobacco budworm larvae (HV), Cotton leaf, mortality; conditions: 48 h, read-out: HV grading of mortality
In short: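 Product in acetone diluted with water containing 0.01% Lissapol NX, at 500, 250 or 100 ppm; pests and/or host medium (here cotton leaf) treated. Mortality scored one to three days later, graded A (80-100%), B (50-79%), C (<50%).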

[5] = test system: Tetranychus urticae (spider mites - ova); test: Contact test on spider mites - ova (TUe), French bean leaf, mortality; conditions: 144 h, 500 ppm, contact, 6 days, read-out: TUe grading of mortality
In short: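 Graded read-out: A 80-100%, B 50-79%, C below 50% mortality or knockdown, assessed usually 1-3 days post-treatment. Liquid preparations at 500, 250 or 100 ppm by weight, from acetone solution diluted in water with 0.01% wetting agent, applied to pests and/or their host plant or food medium.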

[6] = test system: Musca domestica (houseflies - adults); test: Contact test on houseflies - adults (MD), Cotton wool/sugar, mortality; conditions: 24 h, 500 ppm, contact, ** test duration of 1 day, read-out: MD grading of mortality
In short: as §4

[7] = test system: Spodoptera exigua (lesser army worm - larvae); test: Residual test on lesser army worm larvae (SP), Cotton leaf, mortality; conditions: 48 h, 500 ppm, residual, * test duration of 3 days, read-out: SP grading of mortality
In short: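 Product dissolved in acetone and diluted in water with 0.01% wetting agent to 500, 250 or 100 ppm; larvae and/or cotton leaf host treated. Mortality or knockdown scored one to three days later and graded A (80-100%), B (50-79%) or C (<50%).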

[8] = test system: Diabrotica balteata (rootworm larvae); test: Residual test on rootworm larvae (DB), Filter paper/maize seed, mortality; conditions: 48 h, 500 ppm, residual, * test duration of 3 days, read-out: DB grading of mortality
In short: as §4

[9] = test system: Musca domestica (houseflies - adults); test: Knockdown test on houseflies - adults (MD/KD), Cotton wool/sugar; conditions: 500 ppm, 4 hours, read-out: MD/KD grading of knockdown
In short: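 Adult houseflies exposed to the compound at 500, 250 or 100 ppm in acetone/water with 0.01% wetting agent, on a cotton wool/sugar medium. Knockdown and mortality assessed, graded A (80-100%), B (50-79%) or C (<50%).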

insect and acarine pests = test: Biological screening of enantiomers, insecticidal and acaricidal activity; conditions: (-) versus (+) enantiomer

**Q.** For C=CCc1c(F)c(F)c(COC(=O)C(c2cnc(N(C)C)nc2)C(C)C)c(F)c1F (racemic) [Compound 115, 2,3,5,6-tetrafluoro-4-(prop-2-en-1-yl)benzyl (RS)-2-[2-(N,N-dimethylamino)pyrimidin-5-yl]-3-methylbutanoate], which mortality at 500 ppm [1] is on record?
**A.** Its mortality at 500 ppm is 80 to 100%.

**Q.** And the mortality at 500 ppm [2]?
**A.** Its mortality at 500 ppm is < 50%.

**Q.** And the mortality at 500 ppm [3]?
**A.** The mortality at 500 ppm was 80 to 100%.

**Q.** What about the mortality at 500 ppm (Myzus persicae (aphids)) of the same compound?
**A.** Its mortality at 500 ppm is 80 to 100%.

**Q.** And the mortality at 500 ppm [4]?
**A.** Its mortality at 500 ppm is 80 to 100%.

**Q.** And the mortality at 500 ppm [5]?
**A.** The mortality at 500 ppm was 80 to 100%.

**Q.** And the mortality at 500 ppm [6]?
**A.** The mortality at 500 ppm was 80 to 100%.

**Q.** And the mortality at 500 ppm [7]?
**A.** The mortality at 500 ppm was 80 to 100%.

**Q.** And the mortality at 500 ppm [8]?
**A.** The mortality at 500 ppm was < 50%.

**Q.** And the pest or weed control at 500 ppm [9]?
**A.** The pest or weed control at 500 ppm was < 50%.

**Q.** Which results are given for C=CCc1c(F)c(F)c(COC(=O)C(CC)c2cnc(C(C)(C)C)nc2)c(F)c1F (racemic) [Compound 123, 2,3,5,6-tetrafluoro-4-(prop-2-en-1-yl)benzyl (RS)-2-[2-(1,1-dimethylethyl)pyrimidin-5-yl]butanoate]?
**A.** mortality at 500 ppm [1]: 50 to 79%; mortality at 500 ppm [2]: 80 to 100%; mortality at 500 ppm [3]: 80 to 100%; mortality at 500 ppm (Myzus persicae (aphids)): 80 to 100%; mortality at 500 ppm [4]: 80 to 100%; mortality at 500 ppm [5]: 80 to 100%; mortality at 500 ppm [6]: 80 to 100%; mortality at 500 ppm [7]: 80 to 100%; mortality at 500 ppm [8]: < 50%; pest or weed control at 500 ppm [9]: 80 to 100%

**Q.** C=CCc1c(F)c(F)c(COC(=O)C(c2cnc(C(Cl)(Cl)Cl)nc2)C(C)C)c(F)c1F (racemic) [Compound 117, 2,3,5,6-tetrafluoro-4-(prop-2-en-1-yl)benzyl (RS)-2-(2-trichloromethylpyrimidin-5-yl)-3-methylbutanoate] was tested. Which mortality at 500 ppm [1] did it give?
**A.** Its mortality at 500 ppm is 80 to 100%.

**Q.** And the mortality at 500 ppm [2]?
**A.** Its mortality at 500 ppm is 80 to 100%.

**Q.** And the mortality at 500 ppm [3]?
**A.** Its mortality at 500 ppm is 80 to 100%.

**Q.** And the mortality at 500 ppm (Myzus persicae (aphids))?
**A.** The mortality at 500 ppm was 80 to 100%.

**Q.** What about the mortality at 500 ppm [4] of the same compound?
**A.** The mortality at 500 ppm was 80 to 100%.

**Q.** What about the mortality at 500 ppm [5] of the same compound?
**A.** The mortality at 500 ppm was 80 to 100%.

**Q.** What about the mortality at 500 ppm [6] of the same compound?
**A.** The mortality at 500 ppm was 80 to 100%.

**Q.** What about the mortality at 500 ppm [7] of the same compound?
**A.** The mortality at 500 ppm was 80 to 100%.

**Q.** What about the mortality at 500 ppm [8] of the same compound?
**A.** Its mortality at 500 ppm is 50 to 79%.

**Q.** What about the pest or weed control at 500 ppm [9] of the same compound?
**A.** Its pest or weed control at 500 ppm is 80 to 100%.

**Q.** COCc1c(F)c(F)c(COC(=O)C(c2cnc(C(C)(C)C)nc2)C(C)(C)C)c(F)c1F (single isomer, unassigned; enantiomer 4) [(-)-enantiomer, 4-(methoxymethyl)-2,3,5,6-tetrafluorobenzyl 2-[2-(1,1-dimethylethyl)pyrimidin-5-yl]-3,3-dimethylbutanoate] was tested. Which “insecticidal and acaricidal activity of enantiomers” value (insect and acarine pests) did it give?
**A.** The value was “substantially greater insecticidal and acaricidal activity than the (+)-enantiomer”.
